Laboratory results as given in ChEMBL document CHEMBL1139293 (Bioorg Med Chem Lett, 2009).
Active and inactive are the calls of the source. The rule behind the calls is not given here.

Experiments:
[1] = molecular target: T1, Neuronal acetylcholine receptor; alpha3/beta4 (Homo sapiens, UniProt P30926+P32297); assay: Agonist activity at alpha3beta4 nAChR expressed in HEK293 cells by FLIPR membrane potential assay; assay type: functional, cell-based
[2] = molecular target: Neuronal acetylcholine receptor subunit alpha-7 (Homo sapiens, UniProt P36544); assay: Displacement of [3H]MLA from alpha7 nAChR/5HT3A receptor expressed in HEK293 cells; assay type: cell-based
Sequence of Neuronal acetylcholine receptor subunit alpha-7 (P36544 23-502 limits assumed): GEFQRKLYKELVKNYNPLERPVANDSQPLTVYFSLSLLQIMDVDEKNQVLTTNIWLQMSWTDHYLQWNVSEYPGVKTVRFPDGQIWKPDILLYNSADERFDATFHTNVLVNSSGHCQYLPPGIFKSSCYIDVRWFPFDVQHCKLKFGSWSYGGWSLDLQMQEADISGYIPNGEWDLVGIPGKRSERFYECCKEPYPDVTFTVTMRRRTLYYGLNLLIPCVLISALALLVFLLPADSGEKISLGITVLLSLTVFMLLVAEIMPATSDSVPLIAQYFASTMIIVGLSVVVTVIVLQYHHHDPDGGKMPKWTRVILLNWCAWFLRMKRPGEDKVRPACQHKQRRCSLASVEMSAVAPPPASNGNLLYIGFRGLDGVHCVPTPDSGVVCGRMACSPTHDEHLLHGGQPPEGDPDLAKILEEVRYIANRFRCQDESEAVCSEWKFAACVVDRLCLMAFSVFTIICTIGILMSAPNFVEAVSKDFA

[3] = molecular target: T1, Neuronal acetylcholine receptor; alpha3/beta4; assay: Agonist activity at alpha3beta4 nAChR expressed in HEK293 cells at 300 uM by FLIPR membrane potential assay; assay type: functional, cell-based
[4] = molecular target: T1, Neuronal acetylcholine receptor; alpha3/beta4; assay: Agonist activity at alpha3beta4 nAChR expressed in HEK293 cells at 1 mM by FLIPR membrane potential assay; assay type: functional, cell-based

T1 sequence (P30926 whole entry): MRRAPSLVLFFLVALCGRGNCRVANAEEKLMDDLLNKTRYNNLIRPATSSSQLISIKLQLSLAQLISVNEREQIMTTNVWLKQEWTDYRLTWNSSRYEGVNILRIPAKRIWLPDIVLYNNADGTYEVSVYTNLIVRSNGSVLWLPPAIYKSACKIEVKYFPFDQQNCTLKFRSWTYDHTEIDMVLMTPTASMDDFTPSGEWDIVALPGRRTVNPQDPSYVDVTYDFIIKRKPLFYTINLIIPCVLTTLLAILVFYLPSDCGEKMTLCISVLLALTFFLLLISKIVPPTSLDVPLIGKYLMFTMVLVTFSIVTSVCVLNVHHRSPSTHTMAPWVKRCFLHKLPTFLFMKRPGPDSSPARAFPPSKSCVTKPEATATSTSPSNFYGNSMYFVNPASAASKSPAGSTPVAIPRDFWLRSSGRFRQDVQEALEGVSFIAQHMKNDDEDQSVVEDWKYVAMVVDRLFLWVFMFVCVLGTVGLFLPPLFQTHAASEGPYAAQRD
T1 sequence (P32297 whole entry): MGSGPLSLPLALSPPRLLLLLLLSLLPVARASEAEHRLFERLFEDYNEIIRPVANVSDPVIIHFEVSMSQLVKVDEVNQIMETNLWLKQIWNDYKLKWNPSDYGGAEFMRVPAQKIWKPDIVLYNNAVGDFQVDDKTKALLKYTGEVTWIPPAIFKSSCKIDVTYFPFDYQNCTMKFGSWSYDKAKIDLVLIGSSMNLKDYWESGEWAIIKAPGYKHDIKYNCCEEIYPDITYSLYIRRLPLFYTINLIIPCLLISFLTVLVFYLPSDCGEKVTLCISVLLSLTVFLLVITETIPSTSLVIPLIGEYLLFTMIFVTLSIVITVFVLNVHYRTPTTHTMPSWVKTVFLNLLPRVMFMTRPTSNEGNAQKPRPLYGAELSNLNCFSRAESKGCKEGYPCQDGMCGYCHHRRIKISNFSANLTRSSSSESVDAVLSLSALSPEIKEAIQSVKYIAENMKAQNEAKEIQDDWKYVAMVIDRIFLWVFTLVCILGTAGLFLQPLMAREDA

Row | SMILES | EC50 ([1]; read-out: EC50) | Ki [2] | Activity [3] | Activity [4] | EC50 ([1]; read-out: pEC50 (converted)) | pKi [2]
1 | CNC(=O)/C=C/CC(C)N(C)C (stereo not given) | 0.15 mM | > 1 mM | – | – | – | –
2 | CC(CCCC(=O)N(C)C)N(C)C (stereo not given) | 1 mM | > 1 mM | Active | – | – | –
3 | CC(CCNC(=O)Nc1ccccc1)N(C)C (stereo not given) | > 3 mM | > 1 mM | – | Active | – | –
4 | CC(CCOC(=O)NCCCc1ccccc1)N(C)C (stereo not given) | > 1 mM | > 1 mM | Active | – | 1 mM | –
5 | CC(CCOC(=S)N(C)C)N(C)C (stereo not given) | 0.053 mM | > 1 mM | – | – | – | –
6 | CCNC(=O)OCCC(C)N(C)C (stereo not given) | 0.055 mM | > 1 mM | – | – | – | –
7 | CCCNC(=O)OCCC(C)N(C)C (stereo not given) | 0.095 mM | > 1 mM | – | – | – | –
8 | CC(CCOC(=O)NCCO)N(C)C (stereo not given) | 0.3 mM | > 1 mM | – | – | – | –
9 | CC(CCOC(=O)N(C)c1ccc(C#N)cc1)N(C)C (stereo not given) | > 1 mM | 1 mM | Active | – | 1 mM | 3
10 | CC(CCOC(=O)N(C)CCO)N(C)C (stereo not given) | 0.16 mM | > 1 mM | – | – | – | –
11 | CN(C)C(=O)OCCC(CO)N(C)C (stereo not given) | > 3 mM | > 1 mM | Active | Active | – | –
12 | CC(C/C=C/C(=O)N(C)C)N(C)C (stereo not given) | 0.091 mM | > 1 mM | – | – | – | –
13 | CC(CCNC(=O)N(C)C)N(C)C (stereo not given) | > 3 mM | > 1 mM | – | Active | – | –
14 | CC(CCOC(=O)N(C)Cc1ccccc1)N(C)C (stereo not given) | 0.0067 mM | 1 mM | – | – | – | 3
15 | CN(C)C(=O)OCCC(c1ccccc1)N(C)C (stereo not given) | > 1 mM | 1 mM | Active | – | 1 mM | 3
16 | CC(CCOC(N)=O)N(C)C (stereo not given) | 0.057 mM | > 1 mM | – | – | – | –
17 | CC(CCSC(=O)N(C)C)N(C)C (stereo not given) | 0.43 mM | > 1 mM | – | – | – | –
18 | CC(CCOC(=O)N(C)c1ccc(Cl)cc1)N(C)C (stereo not given) | 0.028 mM | 1 mM | – | – | 0.0316 mM | 3
19 | CN(C)C(=O)OCCC(c1ccsc1)N(C)C (stereo not given) | > 1 mM | 1 mM | Active | – | 1 mM | 3
20 | CC(CCOC(=O)N(C)c1ccccc1)N(C)C (stereo not given) | 0.051 mM | 1 mM | – | – | – | 3
